Source: US20260224524A1, “A PHARMACEUTICAL COMPOSITION TARGETING MUTANT P53 AND HER2” (DR DOZO LABORATORIES, priority 2023, published 2026)

How the values were obtained:
[1] = test system: human tumour xenograft MDA-MB-231; test: Human tumour xenograft MDA-MB-231 model, tumour volume and relative tumour volume; format: in vivo, mice; parameters: Tumor Volume: unit not given here; conditions: Group B; for RTV (Relative Tumour Volume): 2.5 mg/kg i.v. day 1, 5, 9
Experimental: The therapeutic effect of SACC is evaluated against triple-negative breast cancer cell line MDA-MB-231 by analysing tumour volume and relative tumour volume. The study involved the use of six mice. These mice were administrated treatment according to the following Groups: […]

[2] = test system: Human Lung Cancer Cell Line A-549; test: Growth inhibition (% control growth, LC50, TGI, GI50) A-549; format: cell-based; conditions: A-549
Experimental: The therapeutic effect of SA1 (peak 5) and SA2 (peak 4) is evaluated against human lung cancer cell line A-549 by calculating the percentage growth inhibition, drug concentration of test compound needed to inhibit cell growth by 50% (GI50) values.
The therapeutic effect of SACC is evaluated against human lung cancer cell line A-549 by calculating the percentage growth inhibition, drug concentration of test compound needed to inhibit cell growth by 50% (GI50) values.

COc1cccc2c1C(=O)c1c(O)c3c(c(O)c1C2=O)C[C@@](O)(C(=O)CO)C[C@@H]3O[C@H]1C[C@H](N)[C@H](O)[C@H](C)O1 [ADR, Adriamycin]
RTV (Relative Tumour Volume) ([1]; day 9): 0.95 | RTV (Relative Tumour Volume) ([1]; day 15): 1.63 | RTV (Relative Tumour Volume) ([1]; day 18): 1.93 | RTV (Relative Tumour Volume) ([1]; day 21): 2.29 | RTV (Relative Tumour Volume) ([1]; day 25): 4.22 | RTV (Relative Tumour Volume) ([1]; day 30): 7.30 | tumour volume (in words) ([1]; ADR 2.5 mg/Kg): decreased tumour volume | Tumor Volume ([1]; ADR 2.5 mg/Kg, day 1, Mouse 1): 0.06 | Tumor Volume ([1]; ADR 2.5 mg/Kg, day 1, Mouse 2): 0.05 | Tumor Volume ([1]; ADR 2.5 mg/Kg, day 1, Mouse 3): 0.06 | Tumor Volume ([1]; ADR 2.5 mg/Kg, day 1, Mouse 4): 0.05 | Tumor Volume ([1]; ADR 2.5 mg/Kg, day 1, Mouse 5): 0.06 | Tumor Volume ([1]; ADR 2.5 mg/Kg, day 1, Mouse 6): 0.06 | Tumor Volume ([1]; ADR 2.5 mg/Kg, day 5, Mouse 1): 0.05 | Tumor Volume ([1]; ADR 2.5 mg/Kg, day 5, Mouse 2): 0.07 | Tumor Volume ([1]; ADR 2.5 mg/Kg, day 5, Mouse 3): 0.06 | Tumor Volume ([1]; ADR 2.5 mg/Kg, day 5, Mouse 4): 0.06 | Tumor Volume ([1]; ADR 2.5 mg/Kg, day 5, Mouse 5): 0.05 | Tumor Volume ([1]; ADR 2.5 mg/Kg, day 5, Mouse 6): 0.06 | Tumor Volume ([1]; ADR 2.5 mg/Kg, day 9, Mouse 1): 0.05 | Tumor Volume ([1]; ADR 2.5 mg/Kg, day 9, Mouse 2): 0.08 | Tumor Volume ([1]; ADR 2.5 mg/Kg, day 9, Mouse 3): 0.04 | Tumor Volume ([1]; ADR 2.5 mg/Kg, day 9, Mouse 4): 0.04 | Tumor Volume ([1]; ADR 2.5 mg/Kg, day 9, Mouse 5): 0.06 | Tumor Volume ([1]; ADR 2.5 mg/Kg, day 9, Mouse 6): 0.05 | Tumor Volume ([1]; ADR 2.5 mg/Kg, day 12, Mouse 1): 0.06 | Tumor Volume ([1]; ADR 2.5 mg/Kg, day 12, Mouse 2): 0.10 | Tumor Volume ([1]; ADR 2.5 mg/Kg, day 12, Mouse 3): 0.05 | Tumor Volume ([1]; ADR 2.5 mg/Kg, day 12, Mouse 4): 0.05 | Tumor Volume ([1]; ADR 2.5 mg/Kg, day 12, Mouse 5): 0.06 | Tumor Volume ([1]; ADR 2.5 mg/Kg, day 12, Mouse 6): 0.07 | Tumor Volume ([1]; ADR 2.5 mg/Kg, day 15, Mouse 1): 0.07 | Tumor Volume ([1]; ADR 2.5 mg/Kg, day 15, Mouse 2): 0.16 | Tumor Volume ([1]; ADR 2.5 mg/Kg, day 15, Mouse 3): 0.07 | Tumor Volume ([1]; ADR 2.5 mg/Kg, day 15, Mouse 4): 0.06 | Tumor Volume ([1]; ADR 2.5 mg/Kg, day 15, Mouse 5): 0.08 | Tumor Volume ([1]; ADR 2.5 mg/Kg, day 15, Mouse 6): 0.11 | Tumor Volume ([1]; ADR 2.5 mg/Kg, day 18, Mouse 1): 0.07 | Tumor Volume ([1]; ADR 2.5 mg/Kg, day 18, Mouse 2): 0.21 | Tumor Volume ([1]; ADR 2.5 mg/Kg, day 18, Mouse 3): 0.07 | Tumor Volume ([1]; ADR 2.5 mg/Kg, day 18, Mouse 4): 0.07 | Tumor Volume ([1]; ADR 2.5 mg/Kg, day 18, Mouse 5): 0.07 | Tumor Volume ([1]; ADR 2.5 mg/Kg, day 18, Mouse 6): 0.16 | Tumor Volume ([1]; ADR 2.5 mg/Kg, day 21, Mouse 1): 0.05 | Tumor Volume ([1]; ADR 2.5 mg/Kg, day 21, Mouse 2): 0.23 | Tumor Volume ([1]; ADR 2.5 mg/Kg, day 21, Mouse 3): 0.08 | Tumor Volume ([1]; ADR 2.5 mg/Kg, day 21, Mouse 4): 0.11 | Tumor Volume ([1]; ADR 2.5 mg/Kg, day 21, Mouse 5): 0.13 | Tumor Volume ([1]; ADR 2.5 mg/Kg, day 21, Mouse 6): 0.17 | Tumor Volume ([1]; ADR 2.5 mg/Kg, day 25, Mouse 1): 0.08 | Tumor Volume ([1]; ADR 2.5 mg/Kg, day 25, Mouse 2): 0.31 | Tumor Volume ([1]; ADR 2.5 mg/Kg, day 25, Mouse 3): 0.33 | Tumor Volume ([1]; ADR 2.5 mg/Kg, day 25, Mouse 4): 0.24 | Tumor Volume ([1]; ADR 2.5 mg/Kg, day 25, Mouse 5): 0.17 | Tumor Volume ([1]; ADR 2.5 mg/Kg, day 25, Mouse 6): 0.29 | Tumor Volume ([1]; ADR 2.5 mg/Kg, day 30, Mouse 2): 0.53 | Tumor Volume ([1]; ADR 2.5 mg/Kg, day 30, Mouse 3): 0.55 | Tumor Volume ([1]; ADR 2.5 mg/Kg, day 30, Mouse 4): 0.29 | Tumor Volume ([1]; ADR 2.5 mg/Kg, day 30, Mouse 5): 0.28 | Tumor Volume ([1]; ADR 2.5 mg/Kg, day 30, Mouse 6): 0.40 | % Control Growth ([2]; 10 μg/ml, Average Values): −26.5% | % Control Growth ([2]; 10 μg/ml, Experiment 1): −23.5% | % Control Growth ([2]; 10 μg/ml, Experiment 2): −29.5% | % Control Growth ([2]; 10 μg/ml, Experiment 3): −26.5% | % Control Growth ([2]; 20 μg/ml, Average Values): −30.8% | % Control Growth ([2]; 20 μg/ml, Experiment 1): −28.2% | % Control Growth ([2]; 20 μg/ml, Experiment 2): −33.8% | % Control Growth ([2]; 20 μg/ml, Experiment 3): −30.4% | % Control Growth ([2]; 40 μg/ml, Average Values): −46.0% | % Control Growth ([2]; 40 μg/ml, Experiment 1): −45.0%
